In PubChem BioAssay AID330 (DTP/NCI, 2004):
Values joined by “and” are separate entries in the source; they are usually repeats but may differ in a detail not shown here. Equal entries are not always repeated. Toxic doses and inconclusive results are not listed. The calls were made as follows: active = survival T/C of 150% or more; inactive = T/C below 125% in these data.

Tested on: P388 leukemia ip, CD2F1 mice, survival T/C
Assay: NCI In Vivo Anticancer Drug Screen. Data for tumor model P388 Leukemia (intraperitoneal) in CD2F1 (CDF1) mice
Conditions: endpoint: median survival time, higher = longer survival
Outline: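 Mice carrying the transplanted tumor received test compound or vehicle. Survival was recorded in each group, and the value is the treated-group measurement divided by that of the vehicle-treated control group.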

[1] = dose: 25.0 mg/kg/injection, schedule: Q01DX009 (ip), vehicle: Klucel (hydroxypropylcellulose) (HPC)
[2] = dose: 50.0 mg/kg/injection, schedule: Q01DX009 (ip), vehicle: Klucel (hydroxypropylcellulose) (HPC)
[3] = dose: 100.0 mg/kg/injection, schedule: Q01DX009 (ip), vehicle: Klucel (hydroxypropylcellulose) (HPC)
[4] = dose: 200.0 mg/kg/injection, schedule: Q01DX009 (ip), vehicle: Klucel (hydroxypropylcellulose) (HPC)
[5] = dose: 25.0 mg/kg/injection, schedule: Q01DX009 (ip), vehicle: saline with Tween-80
[6] = dose: 50.0 mg/kg/injection, schedule: Q01DX009 (ip), vehicle: saline with Tween-80
[7] = dose: 60.0 mg/kg/injection, schedule: Q01DX005 (ip), vehicle: saline with Tween-80
[8] = dose: 120.0 mg/kg/injection, schedule: Q01DX005 (ip), vehicle: saline with Tween-80
[9] = dose: 240.0 mg/kg/injection, schedule: Q01DX005 (ip), vehicle: saline with Tween-80
[10] = dose: 25.0 mg/kg/injection, schedule: Q01DX005 (ip), vehicle: Klucel (hydroxypropylcellulose) (HPC)
[11] = dose: 50.0 mg/kg/injection, schedule: Q01DX005 (ip), vehicle: Klucel (hydroxypropylcellulose) (HPC)
[12] = dose: 100.0 mg/kg/injection, schedule: Q01DX009 (ip), vehicle: saline with Tween-80
[13] = dose: 200.0 mg/kg/injection, schedule: Q01DX009 (ip), vehicle: saline with Tween-80
[14] = dose: 100.0 mg/kg/injection, schedule: Q01DX005 (ip), vehicle: Klucel (hydroxypropylcellulose) (HPC)
[15] = dose: 200.0 mg/kg/injection, schedule: Q01DX005 (ip), vehicle: Klucel (hydroxypropylcellulose) (HPC)
[16] = dose: 50.0 mg/kg/injection, schedule: Q01DX009 (ip), vehicle: saline
[17] = dose: 100.0 mg/kg/injection, schedule: Q01DX009 (ip), vehicle: saline
[18] = dose: 200.0 mg/kg/injection, schedule: Q01DX009 (ip), vehicle: saline
[19] = dose: 60.0 mg/kg/injection, schedule: Q01DX005 (ip), vehicle: saline
[20] = dose: 120.0 mg/kg/injection, schedule: Q01DX005 (ip), vehicle: saline
[21] = dose: 240.0 mg/kg/injection, schedule: Q01DX005 (ip), vehicle: saline

Measured: T/C

O=[N+]([O-])c1cccnc1C1OCCO1
inactive: dose: 50.0 mg/kg/injection, schedule: Q01DX009 (ip), vehicle: saline + Tween-80 + alcohol 102 % of control | dose: 100.0 mg/kg/injection, schedule: Q01DX009 (ip), vehicle: saline + Tween-80 + alcohol 99 % of control

Cc1ccccc1Nc1n[nH]c(=S)s1
inactive: dose: 50.0 mg/kg/injection, schedule: Q04DX003 (ip), vehicle: saline with Tween-80 95 % of control | dose: 100.0 mg/kg/injection, schedule: Q04DX003 (ip), vehicle: saline with Tween-80 100 % of control | dose: 200.0 mg/kg/injection, schedule: Q04DX003 (ip), vehicle: saline with Tween-80 95 % of control

CCN(CC)CCCC(C)Nc1cc(C)nc2cc(N(C)C)ccc12 (stereo not given)
inactive: dose: 6.25 mg/kg/injection, schedule: Q01DX009 (ip), vehicle: Klucel (hydroxypropylcellulose) (HPC) 99 % of control | dose: 12.5 mg/kg/injection, schedule: Q01DX009 (ip), vehicle: Klucel (hydroxypropylcellulose) (HPC) 101 % of control | [1] 109 % of control

O=C(O)c1ccccc1NC(=S)Nc1ccccc1C(F)(F)F
inactive: [2] 100 % of control | [3] 96 % of control | [4] 105 % of control

CN(C)CCOc1ccc2c(c1)CC/C(=C\c1ncc([N+](=O)[O-])n1C)C2=O
inactive: dose: 12.5 mg/kg/injection, schedule: Q01DX009 (ip), vehicle: saline with Tween-80 108 % of control | [5] 108 % of control | [6] 109 % of control and 118 % of control

CN1CCCC2Cc3ccccc3CC21 (stereo not given)
inactive: dose: 6.25 mg/kg/injection, schedule: Q04DX002 (ip), vehicle: Klucel (hydroxypropylcellulose) (HPC) 97 % of control | dose: 12.5 mg/kg/injection, schedule: Q04DX002 (ip), vehicle: Klucel (hydroxypropylcellulose) (HPC) 102 % of control | dose: 25.0 mg/kg/injection, schedule: Q04DX002 (ip), vehicle: Klucel (hydroxypropylcellulose) (HPC) 104 % of control | dose: 100.0 mg/kg/injection, schedule: Q04DX002 (ip), vehicle: Klucel (hydroxypropylcellulose) (HPC) 101 % of control

O=C(O)c1ccc(COc2ccc([N+](=O)[O-])cc2Cl)cc1
inactive: dose: 100.0 mg/kg/injection, schedule: Q04DX003 (ip), vehicle: saline 100 % of control | dose: 200.0 mg/kg/injection, schedule: Q04DX003 (ip), vehicle: saline 99 % of control

CC1OC(OC2C(Oc3ccc4c(=O)c(-c5ccc(O)c(O)c5O)coc4c3)OC(CO)C(O)C2O)C(O)C(O)C1O (stereo not given)
inactive: [7] 103 % of control | [8] 101 % of control | [9] 103 % of control

Cc1nc(N)nc(N)c1-c1ccc(N)cc1
inactive: dose: 12.5 mg/kg/injection, schedule: Q01DX005 (ip), vehicle: saline with Tween-80 105 % of control | dose: 25.0 mg/kg/injection, schedule: Q01DX005 (ip), vehicle: saline with Tween-80 103 % of control | dose: 50.0 mg/kg/injection, schedule: Q01DX005 (ip), vehicle: saline with Tween-80 98 % of control and 105 % of control

N=Nc1c(O)[nH]c2ccccc12
inactive: [2] 89 % of control | [3] 89 % of control | [4] 95 % of control | dose: 400.0 mg/kg/injection, schedule: Q01DX009 (ip), vehicle: Klucel (hydroxypropylcellulose) (HPC) 100 % of control

COc1ccc2c3c([nH]c2c1[N+](=O)[O-])C(C)NCC3 (stereo not given)
inactive: dose: 12.5 mg/kg/injection, schedule: Q01DX005 (ip), vehicle: Klucel (hydroxypropylcellulose) (HPC) 101 % of control | [10] 92 % of control | [11] 92 % of control

O=C1c2ccccc2C(O)(C#Cc2ccccc2)c2cc(Cl)ccc21 (stereo not given)
inactive: [6] 106 % of control | [12] 102 % of control | [13] 90 % of control

O=C1C(C2CCCCC2)=C2OCC3COC2(O3)c2ccccc21 (stereo not given)
inactive: [7] 102 % of control | [8] 105 % of control | [9] 102 % of control

O=C1C=C(OCc2ccccc2)C(=O)C(OCc2ccccc2)=C1
inactive: [11] 94 % of control | [14] 100 % of control | [15] 104 % of control

Cn1c(N)cc2nc3ccccc3n2c1=O
inactive: [7] 96 % of control | [8] 92 % of control | [9] 89 % of control

Cc1cc(NC(=S)SCc2ccc(Cl)cc2)c([N+](=O)[O-])cc1C
inactive: [16] 92 % of control | dose: 50.0 mg/kg/injection, schedule: Q01DX009 (ip), vehicle: suspension in saline 108 % of control | [17] 97 % of control | [18] 92 % of control | dose: 200.0 mg/kg/injection, schedule: Q01DX009 (ip), vehicle: suspension in saline 98 % of control

COC(=O)C(Cl)Cc1cnc[nH]1 (stereo not given)
inactive: [16] 92 % of control | [17] 98 % of control | [18] 92 % of control

CC1=C(C)C(=O)c2c(c(O)c3ccccc3c2Cl)C1=O
inactive: dose: 0.75 mg/kg/injection, schedule: Q01DX005 (ip), vehicle: saline with Tween-80 96 % of control | dose: 1.5 mg/kg/injection, schedule: Q01DX005 (ip), vehicle: saline with Tween-80 89 % of control | dose: 3.0 mg/kg/injection, schedule: Q01DX005 (ip), vehicle: saline with Tween-80 91 % of control | dose: 200.0 mg/kg/injection, schedule: Q01DX005 (ip), vehicle: saline with Tween-80 93 % of control

Cc1ccc(/C=C/C(=O)C(C)CN(C)C)cc1 (stereo not given)
inactive: dose: 15.0 mg/kg/injection, schedule: Q01DX005 (ip), vehicle: saline 100 % of control | dose: 30.0 mg/kg/injection, schedule: Q01DX005 (ip), vehicle: saline 99 % of control | [19] 98 % of control and 100 % of control | [20] 100 % of control and 106 % of control and 107 % of control | [21] 119 % of control

O=C1C(Cl)=C(Cl)C(=O)C(/C=C/N2CCOCC2)=C1Cl
inactive: dose: 50.0 mg/kg/injection, schedule: Q01DX001 (ip), vehicle: saline with Tween-80 102 % of control | dose: 100.0 mg/kg/injection, schedule: Q01DX001 (ip), vehicle: saline with Tween-80 98 % of control

COc1cc2c(c(OC)c1OC)-c1ccc(SC)c(=O)cc1C(NC(=S)NC1OCC(OC(C)=O)C(OC(C)=O)C1OC(C)=O)CC2 (stereo not given)
inactive: [12] 93 % of control and 101 % of control
active: [5] 178 % of control and 184 % of control | [6] 200 % of control and 191 % of control

CN(C(=O)OCc1ccccc1)c1ccc(C(=O)NC(CCC(=O)OCc2ccccc2)C(=O)OCc2ccccc2)cc1 (stereo not given)
inactive: [13] 94 % of control

c1ccc(CCn2c(-c3ccncc3)nc3ccccc32)nc1
inactive: [10] 109 % of control | [11] 104 % of control | [14] 107 % of control | [15] 105 % of control

C=CCc1ccc(O)cc1
inactive: [1] 93 % of control | [2] 99 % of control | [3] 107 % of control | [4] 99 % of control

C=CCn1c(=O)c2[nH]c(Cl)nc2n(CC)c1=O
inactive: dose: 16.0 mg/kg/injection, schedule: Q01DX009 (ip), vehicle: Klucel (hydroxypropylcellulose) (HPC) 100 % of control and 105 % of control | dose: 32.0 mg/kg/injection, schedule: Q01DX009 (ip), vehicle: Klucel (hydroxypropylcellulose) (HPC) 106 % of control and 94 % of control | dose: 64.0 mg/kg/injection, schedule: Q01DX009 (ip), vehicle: Klucel (hydroxypropylcellulose) (HPC) 102 % of control and 106 % of control

COC(=O)[C@@]1(O)CC(OC)=CC1=O
inactive: dose: 5.0 mg/kg/injection, schedule: Q01DX005 (ip), vehicle: Klucel (hydroxypropylcellulose) (HPC) 93 % of control | dose: 10.0 mg/kg/injection, schedule: Q01DX005 (ip), vehicle: Klucel (hydroxypropylcellulose) (HPC) 95 % of control | dose: 20.0 mg/kg/injection, schedule: Q01DX005 (ip), vehicle: Klucel (hydroxypropylcellulose) (HPC) 100 % of control | dose: 40.0 mg/kg/injection, schedule: Q01DX005 (ip), vehicle: Klucel (hydroxypropylcellulose) (HPC) 93 % of control | dose: 80.0 mg/kg/injection, schedule: Q01DX005 (ip), vehicle: Klucel (hydroxypropylcellulose) (HPC) 98 % of control

CCc1cc(-c2cc(CC)on2)no1
inactive: [19] 103 % of control | [20] 100 % of control | [21] 91 % of control

CCC(O)C1(OC)C=CC(OC)O1 (stereo not given)
inactive: dose: 3.12 mg/kg/injection, schedule: Q01DX005 (ip), vehicle: saline 100 % of control | dose: 6.25 mg/kg/injection, schedule: Q01DX005 (ip), vehicle: saline 97 % of control | dose: 12.5 mg/kg/injection, schedule: Q01DX005 (ip), vehicle: saline 101 % of control
